Source: patent US20170190671A1, “BIS(ARYL)CATECHOL DERIVATIVES AS HERBICIDES” (E I DU PONT DE NEMOURS AND COMPANY, priority 2014, published 2017)

Tests used:
Assay in all cases: Test C preemergence
Format in all cases: in vivo
[1] = tested on: waterhemp (common waterhemp, Amaranthus rudis); conditions: Amaranthus tuberculatus, pre-emergence, scale 0 to 100, read-out: Plant response rating, Waterhemp
Summary of the method: (§1)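 Visual ratings were made 13-15 days after treatment in the greenhouse, scored 0-100 against controls, where 100 means complete control. Treatments used a surfactant-containing non-phytotoxic solvent formulation, applied preemergence to seeds in loam-sand soil or postemergence to 2-18 cm plants (1-4 leaves) in peat-based medium.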

[2] = tested on: soybean (Glycine max); conditions: Glycine max, pre-emergence, scale 0 to 100, read-out: Plant response rating, Soybean
Summary of the method: as §1

[3] = tested on: galium (catchweed bedstraw, Galium aparine); conditions: Galium, pre-emergence, 336 h, scale 0 to 100, read-out: Plant response rating, Galium
Summary of the method: as §1

[4] = tested on: morningglory (Ipomoea coccinea); conditions: Ipomoea, pre-emergence, 336 h, scale 0 to 100, read-out: Plant response rating, Morningglory
Summary of the method: as §1

[5] = tested on: johnsongrass (Sorghum halepense); conditions: Sorghum halepense, pre-emergence, 336 h, scale 0 to 100, read-out: Plant response rating, Johnsongrass
Summary of the method: as §1

[6] = tested on: corn (Zea mays); conditions: Zea mays, pre-emergence, 336 h, scale 0 to 100
Summary of the method: as §1

[7] = tested on: Italian ryegrass (Lolium multiflorum); conditions: Lolium multiflorum, pre-emergence, 336 h, scale 0 to 100, read-out: Plant response rating, Ryegrass, Italian
Summary of the method: as §1

[8] = tested on: ragweed (common ragweed, Ambrosia elatior); conditions: Ambrosia artemisiifolia, pre-emergence, 336 h, scale 0 to 100, read-out: Plant response rating, Ragweed
Summary of the method: as §1

[9] = tested on: winter wheat (Triticum aestivum); conditions: Triticum aestivum, pre-emergence, 336 h, scale 0 to 100, read-out: Plant response rating, Wheat
Summary of the method: as §1

[10] = tested on: pigweed (Amaranthus retroflexus); conditions: Amaranthus retroflexus, pre-emergence, 336 h, scale 0 to 100, read-out: Plant response rating, Pigweed
Summary of the method: as §1

[11] = tested on: lambsquarters (Chenopodium album); conditions: Chenopodium album, pre-emergence, 336 h, scale 0 to 100, read-out: Plant response rating, Lambsquarters
Summary of the method: as §1

[12] = tested on: barnyardgrass (Echinochloa crus-galli); conditions: Echinochloa crus-galli, pre-emergence, read-out: Plant response rating, Barnyardgrass
Summary of the method: as §1

[13] = tested on: velvetleaf (Abutilon theophrasti); conditions: Abutilon theophrasti, pre-emergence, scale 0 to 100, read-out: Plant response rating, Velvetleaf
Summary of the method: as §1

[14] = tested on: giant foxtail (Setaria faberii); conditions: Setaria faberi, pre-emergence, 336 h, scale 0 to 100, read-out: Plant response rating, Foxtail, Giant
Summary of the method: as §1

[15] = tested on: large (Lg) crabgrass (Digitaria sanguinalis); conditions: Digitaria sanguinalis, pre-emergence, 336 h, scale 0 to 100, read-out: Plant response rating, Crabgrass, Large
Summary of the method: as §1

With `Fc1cccc(Oc2ncc(Cl)cn2)c1Oc1ncc(C(F)(F)F)cn1` [Compound 43, 5-chloro-2-[5-fluoro-6-[[5-(trifluoromethyl)-2-pyrimidinyl]oxy]phenoxy]pyrimidine] the pest or weed control at 31 g/ha ([1]; 31 g ai/ha, preemergence) was 100%, the pest or weed control at 62 g/ha ([1]; 62 g ai/ha, preemergence) was 100% and the pest or weed control at 125 g/ha ([1]; 125 g ai/ha, preemergence) was 100%. It also gave a pest or weed control at 16 g/ha ([1]; Preemergence, 16 g ai/ha) of 85%, a plant injury at 31 g/ha ([2]; 31 g ai/ha, preemergence) of 45% and a plant injury at 62 g/ha ([2]; 62 g ai/ha, preemergence) of 75%. The plant injury at 125 g/ha ([2]; 125 g ai/ha, preemergence) was 90%, the plant injury at 16 g/ha ([2]; Preemergence, 16 g ai/ha) was 30% and the pest or weed control at 31 g/ha ([3]; 31 g ai/ha, preemergence) was 95%. For the same compound, the pest or weed control at 62 g/ha ([3]; 62 g ai/ha, preemergence) was 100%, the pest or weed control at 125 g/ha ([3]; 125 g ai/ha, preemergence) was 100% and the pest or weed control at 16 g/ha ([3]; Preemergence, 16 g ai/ha) was 95%. The pest or weed control at 31 g/ha ([4]; 31 g ai/ha, preemergence) was 85%, the pest or weed control at 62 g/ha ([4]; 62 g ai/ha, preemergence) was 100% and the pest or weed control at 125 g/ha ([4]; 125 g ai/ha, preemergence) was 100%. For the same compound, the pest or weed control at 16 g/ha ([4]; Preemergence, 16 g ai/ha) was 70%, the pest or weed control at 31 g/ha ([5]; 31 g ai/ha, preemergence) was 75% and the pest or weed control at 62 g/ha ([5]; 62 g ai/ha, preemergence) was 100%. It also gave a pest or weed control at 125 g/ha ([5]; 125 g ai/ha, preemergence) of 100%, a pest or weed control at 16 g/ha ([5]; Preemergence, 16 g ai/ha) of 20% and a Corn plant response rating (crop injury, 0 = no effect, 100 = complete kill) at 31 g/ha ([6]; 31 g ai/ha, preemergence) of 20%. It also gave a Corn plant response rating (crop injury, 0 = no effect, 100 = complete kill) at 62 g/ha ([6]; 62 g ai/ha, preemergence) of 65%, a Corn plant response rating (crop injury, 0 = no effect, 100 = complete kill) at 125 g/ha ([6]; 125 g ai/ha, preemergence) of 90% and a Corn plant response rating (crop injury, 0 = no effect, 100 = complete kill) at 16 g/ha ([6]; Preemergence, 16 g ai/ha) of 20%. For the same compound, the pest or weed control at 31 g/ha ([7]; 31 g ai/ha, preemergence) was 50%, the pest or weed control at 62 g/ha ([7]; 62 g ai/ha, preemergence) was 85% and the pest or weed control at 125 g/ha ([7]; 125 g ai/ha, preemergence) was 95%. It also gave a pest or weed control at 16 g/ha ([7]; Preemergence, 16 g ai/ha) of 5%, a pest or weed control at 31 g/ha ([8]; 31 g ai/ha, preemergence) of 80% and a pest or weed control at 62 g/ha ([8]; 62 g ai/ha, preemergence) of 100%. The pest or weed control at 125 g/ha ([8]; 125 g ai/ha, preemergence) was 90%, the pest or weed control at 16 g/ha ([8]; Preemergence, 16 g ai/ha) was 35% and the plant injury at 31 g/ha ([9]; 31 g ai/ha, preemergence) was 25%. For the same compound, the plant injury at 62 g/ha ([9]; 62 g ai/ha, preemergence) was 40%, the plant injury at 125 g/ha ([9]; 125 g ai/ha, preemergence) was 90% and the plant injury at 16 g/ha ([9]; Preemergence, 16 g ai/ha) was 5%. For the same compound, the pest or weed control at 31 g/ha ([10]; 31 g ai/ha, preemergence) was 100%, the pest or weed control at 62 g/ha ([10]; 62 g ai/ha, preemergence) was 100% and the pest or weed control at 125 g/ha ([10]; 125 g ai/ha, preemergence) was 100%. It also gave a pest or weed control at 16 g/ha ([10]; Preemergence, 16 g ai/ha) of 100%, a pest or weed control at 31 g/ha ([11]; 31 g ai/ha, preemergence) of 100% and a pest or weed control at 62 g/ha ([11]; 62 g ai/ha, preemergence) of 100%. For the same compound, the pest or weed control at 125 g/ha ([11]; 125 g ai/ha, preemergence) was 100%, the pest or weed control at 16 g/ha ([11]; Preemergence, 16 g ai/ha) was 100% and the pest or weed control at 31 g/ha ([12]; 31 g ai/ha, preemergence, scale 0 to 100) was 85%. The pest or weed control at 62 g/ha ([12]; 62 g ai/ha, preemergence, scale 0 to 100) was 100%, the pest or weed control at 125 g/ha ([12]; 125 g ai/ha, preemergence, scale 0 to 100) was 100% and the pest or weed control at 16 g/ha ([12]; Preemergence, 16 g ai/ha, scale 0 to 100 (0 no effect, 100 complete control)) was 60%. For the same compound, the pest or weed control at 31 g/ha ([13]; 31 g ai/ha, preemergence) was 100%, the pest or weed control at 62 g/ha ([13]; 62 g ai/ha, preemergence) was 100% and the pest or weed control at 125 g/ha ([13]; 125 g ai/ha, preemergence) was 100%. It also gave a pest or weed control at 16 g/ha ([13]; Preemergence, 16 g ai/ha) of 100%, a pest or weed control at 31 g/ha ([14]; 31 g ai/ha, preemergence) of 100% and a pest or weed control at 62 g/ha ([14]; 62 g ai/ha, preemergence) of 100%. The pest or weed control at 125 g/ha ([14]; 125 g ai/ha, preemergence) was 100%, the pest or weed control at 16 g/ha ([14]; Preemergence, 16 g ai/ha) was 95% and the pest or weed control at 31 g/ha ([15]; 31 g ai/ha, preemergence) was 100%. The pest or weed control at 62 g/ha ([15]; 62 g ai/ha, preemergence) was 100%, the pest or weed control at 125 g/ha ([15]; 125 g ai/ha, preemergence) was 100% and the pest or weed control at 16 g/ha ([15]; Preemergence, 16 g ai/ha) was 100%.
